± gives the uncertainty stated by the source.
Experiment: xn = mol fraction of the nth substance listed

CC[n+]1ccn(C)c1.O=S(=O)([O-])O + Cc1ncc(CO)c(CO)c1O.Cl + O
viscosity [mPa·s], 100 kPa
Conditions | 293.15 K | 298.15 K | 303.15 K | 308.15 K | 313.15 K
x2 = 0, x1 = 0.0009002 | 1.048 ± 0.08 | 0.945 ± 0.08 | 0.835 ± 0.08 | 0.758 ± 0.08 | 0.693 ± 0.08
x2 = 0, x1 = 0.001799 | 1.067 ± 0.081 | 0.948 ± 0.08 | 0.855 ± 0.08 | 0.772 ± 0.08 | 0.702 ± 0.08
x2 = 0, x1 = 0.002696 | 1.083 ± 0.081 | 0.963 ± 0.08 | 0.862 ± 0.08 | 0.776 ± 0.08 | 0.707 ± 0.08
x2 = 0.000265, x1 = 0.002695 | 1.088 ± 0.081 | 0.968 ± 0.08 | 0.867 ± 0.08 | 0.781 ± 0.08 | 0.712 ± 0.08
x2 = 0.0002728, x1 = 0.0008999 | 1.052 ± 0.08 | 0.949 ± 0.08 | 0.839 ± 0.08 | 0.762 ± 0.08 | 0.697 ± 0.08
x2 = 0.0002827, x1 = 0.001798 | 1.072 ± 0.081 | 0.953 ± 0.08 | 0.86 ± 0.08 | 0.777 ± 0.08 | 0.707 ± 0.08
x2 = 0.0004855, x1 = 0.0008998 | 1.056 ± 0.08 | 0.953 ± 0.08 | 0.843 ± 0.08 | 0.766 ± 0.08 | 0.701 ± 0.08
x2 = 0.0005353, x1 = 0.002694 | 1.093 ± 0.081 | 0.973 ± 0.08 | 0.872 ± 0.08 | 0.786 ± 0.08 | 0.717 ± 0.08
x2 = 0.0005469, x1 = 0.001798 | 1.077 ± 0.081 | 0.958 ± 0.08 | 0.865 ± 0.08 | 0.782 ± 0.08 | 0.712 ± 0.08
x2 = 0.0008161, x1 = 0.0008994 | 1.062 ± 0.08 | 0.959 ± 0.08 | 0.849 ± 0.08 | 0.772 ± 0.08 | 0.707 ± 0.08
x2 = 0.0008296, x1 = 0.002693 | 1.099 ± 0.081 | 0.979 ± 0.08 | 0.878 ± 0.08 | 0.792 ± 0.08 | 0.723 ± 0.08
x2 = 0.0008311, x1 = 0.001797 | 1.082 ± 0.081 | 0.963 ± 0.08 | 0.87 ± 0.08 | 0.787 ± 0.08 | 0.717 ± 0.08
x2 = 0.001096, x1 = 0.0008992 | 1.067 ± 0.081 | 0.964 ± 0.08 | 0.854 ± 0.08 | 0.777 ± 0.08 | 0.712 ± 0.08
x2 = 0.001123, x1 = 0.001797 | 1.088 ± 0.081 | 0.969 ± 0.08 | 0.877 ± 0.08 | 0.793 ± 0.08 | 0.723 ± 0.08
x2 = 0.001138, x1 = 0.002693 | 1.106 ± 0.081 | 0.986 ± 0.08 | 0.884 ± 0.08 | 0.797 ± 0.08 | 0.729 ± 0.08
x2 = 0.001364, x1 = 0.000899 | 1.073 ± 0.081 | 0.97 ± 0.08 | 0.86 ± 0.08 | 0.784 ± 0.08 | 0.718 ± 0.08
x2 = 0.001383, x1 = 0.001796 | 1.094 ± 0.081 | 0.976 ± 0.08 | 0.882 ± 0.08 | 0.798 ± 0.08 | 0.728 ± 0.08
x2 = 0.001395, x1 = 0.002692 | 1.111 ± 0.081 | 0.992 ± 0.08 | 0.889 ± 0.08 | 0.803 ± 0.08 | 0.734 ± 0.08
x2 = 0.001638, x1 = 0.0008987 | 1.078 ± 0.081 | 0.976 ± 0.08 | 0.866 ± 0.08 | 0.79 ± 0.08 | 0.724 ± 0.08
x2 = 0.001641, x1 = 0.001796 | 1.099 ± 0.081 | 0.981 ± 0.08 | 0.888 ± 0.08 | 0.805 ± 0.08 | 0.734 ± 0.08
x2 = 0.001656, x1 = 0.002691 | 1.117 ± 0.081 | 0.998 ± 0.08 | 0.896 ± 0.08 | 0.808 ± 0.08 | 0.739 ± 0.08

CCCCCC[N+](CC)(CC)CC.O=S(=O)([N-]S(=O)(=O)C(F)(F)F)C(F)(F)F + O
101 kPa, x2 = 0.1627
Conditions | viscosity [mPa·s]
293.25 K | 79.3 ± 1.7
308.05 K | 44.04 ± 0.92

FC(F)(F)c1ccccc1 + CCCC[N+]1(C)CCCC1.FC(F)(F)C(F)(F)[P-](F)(F)(F)(C(F)(F)C(F)(F)F)C(F)(F)C(F)(F)F
101 kPa
Conditions | electrical conductivity [S/m] | viscosity [mPa·s]
298.1 K, x2 = 0 | – | 0.53 ± 0.03
298.1 K, x2 = 0.059 | 0.368 ± 0.007 | –
298.1 K, x2 = 0.099 | 0.536 ± 0.011 | –
298.1 K, x2 = 0.144 | 0.663 ± 0.013 | –
298.1 K, x2 = 0.198 | – | 3.67 ± 0.15
298.1 K, x2 = 0.203 | 0.762 ± 0.015 | –
298.1 K, x2 = 0.27 | – | 5.93 ± 0.31
298.1 K, x2 = 0.274 | 0.696 ± 0.014 | –
298.1 K, x2 = 0.371 | 0.619 ± 0.012 | –
298.1 K, x2 = 0.495 | – | 21.7 ± 1
298.1 K, x2 = 0.5 | 0.461 ± 0.009 | –
298.1 K, x2 = 0.69 | 0.311 ± 0.006 | 55.1 ± 2.3
298.1 K, x2 = 0.858 | 0.172 ± 0.003 | 111.8 ± 5.9
303 K, x2 = 0.063 | 0.394 ± 0.008 | –
303 K, x2 = 0.099 | 0.576 ± 0.012 | –
303 K, x2 = 0.144 | 0.711 ± 0.014 | –
303 K, x2 = 0.2 | 0.82 ± 0.016 | –
303 K, x2 = 0.274 | 0.772 ± 0.015 | –
303 K, x2 = 0.366 | – | 8.56 ± 0.35
303 K, x2 = 0.374 | 0.681 ± 0.014 | –
303 K, x2 = 0.497 | 0.553 ± 0.011 | –
303 K, x2 = 0.498 | – | 17.83 ± 0.75
303 K, x2 = 0.694 | 0.369 ± 0.007 | –
303 K, x2 = 0.852 | – | 84.4 ± 3.7
303 K, x2 = 0.858 | 0.212 ± 0.004 | –
308.1 K, x2 = 0.063 | 0.415 ± 0.008 | –
308.1 K, x2 = 0.102 | 0.612 ± 0.012 | –
308.1 K, x2 = 0.141 | 0.766 ± 0.015 | –
308.1 K, x2 = 0.201 | – | 2.93 ± 0.12
308.1 K, x2 = 0.206 | 0.886 ± 0.018 | –
308.1 K, x2 = 0.281 | 0.842 ± 0.017 | –
308.1 K, x2 = 0.366 | – | 7.87 ± 0.33
308.1 K, x2 = 0.378 | 0.761 ± 0.015 | –
308.1 K, x2 = 0.5 | 0.611 ± 0.012 | –
308.1 K, x2 = 0.69 | – | 39.4 ± 1.6
308.1 K, x2 = 0.694 | 0.435 ± 0.009 | –
308.1 K, x2 = 0.858 | 0.259 ± 0.005 | –
313 K, x2 = 0.063 | 0.434 ± 0.009 | –
313 K, x2 = 0.099 | 0.645 ± 0.013 | –
313 K, x2 = 0.141 | – | 1.77 ± 0.08
313 K, x2 = 0.142 | 0.817 ± 0.016 | –
313 K, x2 = 0.203 | 0.951 ± 0.019 | –
313 K, x2 = 0.278 | 0.911 ± 0.018 | –
313 K, x2 = 0.371 | 0.834 ± 0.017 | –
313 K, x2 = 0.498 | – | 12.73 ± 0.53
313 K, x2 = 0.5 | 0.688 ± 0.014 | –
313 K, x2 = 0.687 | – | 32.3 ± 1.4
313 K, x2 = 0.697 | 0.504 ± 0.01 | –
313 K, x2 = 0.859 | 0.31 ± 0.006 | –
318.1 K, x2 = 0.063 | 0.456 ± 0.009 | –
318.1 K, x2 = 0.099 | 0.678 ± 0.014 | –
318.1 K, x2 = 0.142 | 0.86 ± 0.017 | –
318.1 K, x2 = 0.2 | 1.02 ± 0.02 | –
318.1 K, x2 = 0.275 | 0.988 ± 0.02 | –
318.1 K, x2 = 0.369 | – | 6.11 ± 0.25
318.1 K, x2 = 0.372 | 0.914 ± 0.018 | –
318.1 K, x2 = 0.504 | 0.757 ± 0.015 | –
318.1 K, x2 = 0.687 | – | 26.6 ± 1.2
318.1 K, x2 = 0.694 | 0.577 ± 0.012 | –
318.1 K, x2 = 0.855 | 0.361 ± 0.007 | –
323 K, x2 = 0 | – | 0.46 ± 0.02
323 K, x2 = 0.026 | 0.204 ± 0.004 | –
323 K, x2 = 0.095 | – | 1.09 ± 0.05
323 K, x2 = 0.099 | 0.715 ± 0.014 | –
323 K, x2 = 0.142 | 0.908 ± 0.018 | –
323 K, x2 = 0.201 | 1.08 ± 0.022 | –
323 K, x2 = 0.278 | 1.07 ± 0.022 | –
323 K, x2 = 0.372 | 0.991 ± 0.02 | –
323 K, x2 = 0.498 | – | 9.89 ± 0.41
323 K, x2 = 0.501 | 0.834 ± 0.017 | –
323 K, x2 = 0.694 | 0.658 ± 0.013 | –
323 K, x2 = 0.856 | – | 37.4 ± 1.9
323 K, x2 = 0.862 | 0.416 ± 0.008 | –

CC(O)C(=O)[O-].CCOCCn1cc[n+](C)c1 + O
100 kPa
Conditions | electrical conductivity [S/m] | viscosity [mPa·s]
293.15 K, x1 = 0.8093 | 0.292 ± 0.02 | 70.03 ± 0.95
293.15 K, x1 = 0.8365 | 0.261 ± 0.02 | 74.7 ± 1.1
293.15 K, x1 = 0.9017 | 0.2 ± 0.02 | 85.7 ± 1.7
298.15 K, x1 = 0.8702 | 0.276 ± 0.02 | 60.47 ± 0.58
303.15 K, x1 = 0.938 | 0.274 ± 0.02 | 52.44 ± 0.39
308.15 K, x1 = 0.8093 | 0.498 ± 0.02 | 31.76 ± 0.35
308.15 K, x1 = 0.8365 | 0.464 ± 0.02 | 33.56 ± 0.38
308.15 K, x1 = 0.8702 | 0.43 ± 0.02 | 35.75 ± 0.4
318.15 K, x1 = 0.9017 | 0.617 ± 0.02 | 22.56 ± 0.3

Reference: the CheMixHub ionic liquid set
